# Reference: patent publication US20200017496A1 (priority 2017, published 2020)
# Read-outs that look alike come from different tables or passages of the source.
# Columns and labels:
# [1] = system: Escherichia coli (ECO) isolates; assay: MIC of compounds alone and combined with antibacterials, broth microdilution (CLSI); assay type: cell-based; conditions: for MIC: Escherichia coli, ATB alone
# Experimental: (§1) Method 2: MIC of Compounds Alone and Combined with Antibacterials Against Bacterial Isolates.
# (§2) Compounds of the present invention were assessed against genotyped bacterial strains (Table 3, 4) alone or in combination with an antibacterial (Table 2). […] Log phase bacterial suspensions were adjusted to a final density of 5·10^5 CFU/mL in cation-adjusted Mueller-Hinton broth (ca-MHB; Becton-Dickinson and Company) and added to each well (98 μL). Microplates were incubated for 16-20 h at 35° C. in ambient air. The MIC of the compounds was defined as the lowest concentration of said compounds that prevented bacterial growth as read by visual inspection. The MIC of ATB at each compound concentration was defined as the lowest concentration of ATB that prevented bacterial growth as read by visual inspection.
# [2] = system: Proteus mirabilis (PMI) isolates; assay: microbe, parasite or virus in culture; assay type: cell-based; conditions: for MIC: Proteus mirabilis, ATB alone, read-out: MIC
# Experimental: as §1, §2
compound,measurement,setting,value
"CC(C)(O/N=C(\C(=O)N[C@@H]1C(=O)N2C(C(=O)[O-])=C(C[n+]3ccccc3)CS[C@H]12)c1csc(N)n1)C(=O)O [CAZ, Ceftazidime]",MIC ATB in combination,"[1]; ECO UFR20, AF1 @ 4 μg/mL",1 mg/L
same,MIC ATB in combination,"[1]; ECO UFR20, AF1 @ 8 μg/mL",1 mg/L
same,MIC ATB in combination,"[1]; ECO UFR61O, AF1 @ 4 μg/mL",2 mg/L
same,MIC ATB in combination,"[1]; ECO UFR61O, AF1 @ 8 μg/mL",0.5 mg/L
same,MIC ATB in combination,"[1]; ECO UFR62, AF1 @ 4 μg/mL",<=0.25 μg/mL
same,MIC ATB in combination,"[1]; ECO UFR62, AF1 @ 8 μg/mL",<=0.25 μg/mL
same,MIC ATB in combination,"[1]; ECO UFR74, AF1 @ 4 μg/mL",1 mg/L
same,MIC ATB in combination,"[1]; ECO UFR74, AF1 @ 8 μg/mL",<=0.25 μg/mL
same,MIC ATB in combination,"[1]; ECO UFR86, AF1 @ 4 μg/mL",1 mg/L
same,MIC ATB in combination,"[1]; ECO UFR86, AF1 @ 8 μg/mL",<=0.25 μg/mL
same,MIC ATB in combination,"[1]; ECO UFR174, AF1 @ 4 μg/mL",<=0.25 μg/mL
same,MIC ATB in combination,"[1]; ECO UFR174, AF1 @ 8 μg/mL",<0.25 mg/L
same,MIC ATB in combination,"[1]; ECO UFR175, AF1 @ 4 μg/mL",2 mg/L
same,MIC ATB in combination,"[1]; ECO UFR175, AF1 @ 8 μg/mL",<=0.25 μg/mL
same,MIC ATB in combination,"[1]; ECO UFR176, AF1 @ 4 μg/mL",2 mg/L
same,MIC ATB in combination,"[1]; ECO UFR176, AF1 @ 8 μg/mL",<=0.25 μg/mL
same,MIC ATB in combination,"[1]; ECO UFR184, AF1 @ 4 μg/mL",1 mg/L
same,MIC ATB in combination,"[1]; ECO UFR184, AF1 @ 8 μg/mL",<=0.25 μg/mL
same,MIC ATB in combination,"[1]; ECO UFR185, AF1 @ 4 μg/mL",2 mg/L
same,MIC ATB in combination,"[1]; ECO UFR185, AF1 @ 8 μg/mL",<0.25 mg/L
same,MIC ATB in combination,"[1]; ECO UFR186, AF1 @ 4 μg/mL",<=0.25 μg/mL
same,MIC ATB in combination,"[1]; ECO UFR186, AF1 @ 8 μg/mL",<=0.25 μg/mL
same,MIC ATB in combination,"[1]; ECO UFR187, AF1 @ 4 μg/mL",1 mg/L
same,MIC ATB in combination,"[1]; ECO UFR187, AF1 @ 8 μg/mL",<=0.25 μg/mL
same,MIC ATB in combination,"[1]; ECO UFR189, AF1 @ 4 μg/mL",<=0.25 μg/mL
same,MIC ATB in combination,"[1]; ECO UFR189, AF1 @ 8 μg/mL",<=0.25 μg/mL
same,MIC ATB in combination,"[1]; ECO UFR190, AF1 @ 4 μg/mL",<=0.25 μg/mL
same,MIC ATB in combination,"[1]; ECO UFR190, AF1 @ 8 μg/mL",<=0.25 μg/mL
same,MIC ATB in combination,"[1]; ECO UFR191, AF1 @ 4 μg/mL",<=0.25 μg/mL
same,MIC ATB in combination,"[1]; ECO UFR191, AF1 @ 8 μg/mL",<=0.25 μg/mL
same,MIC ATB in combination,"[1]; ECO UFR207, AF1 @ 4 μg/mL",<=0.25 μg/mL
same,MIC ATB in combination,"[1]; ECO UFR207, AF1 @ 8 μg/mL",<=0.25 μg/mL
same,MIC ATB in combination,"[1]; ECO UFR208, AF1 @ 4 μg/mL",4 mg/L
same,MIC ATB in combination,"[1]; ECO UFR208, AF1 @ 8 μg/mL",2 mg/L
same,MIC ATB in combination,"[1]; ECO UFR209, AF1 @ 4 μg/mL",<=0.25 μg/mL
same,MIC ATB in combination,"[1]; ECO UFR209, AF1 @ 8 μg/mL",<=0.25 μg/mL
same,MIC ATB in combination,"[1]; ECO UFR210, AF1 @ 4 μg/mL",<=0.25 μg/mL
same,MIC ATB in combination,"[1]; ECO UFR210, AF1 @ 8 μg/mL",<=0.25 μg/mL
same,MIC ATB in combination,"[1]; ECO UFR211, AF1 @ 4 μg/mL",0.5 mg/L
same,MIC ATB in combination,"[1]; ECO UFR211, AF1 @ 8 μg/mL",<=0.25 μg/mL
same,MIC ATB in combination,"[1]; ECO UFR212, AF1 @ 4 μg/mL",4 mg/L
same,MIC ATB in combination,"[1]; ECO UFR212, AF1 @ 8 μg/mL",<=0.25 μg/mL
same,MIC ATB in combination,"[1]; ECO UFR218, AF1 @ 4 μg/mL",<=0.25 μg/mL
same,MIC ATB in combination,"[1]; ECO UFR218, AF1 @ 8 μg/mL",<0.25 mg/L
same,MIC,"[1]; strain ECO 4133 (TEM-30, OXA-1)",0.5 mg/L
same,MIC,"[1]; strain ECO 5302 (TEM-1, OXA-1)",0.5 mg/L
same,MIC,"[1]; strain ECO 131119 (TEM-1, OXA-48)",0.5 mg/L
same,MIC,[1]; strain ECO 190314 (CTX-M-1),8 mg/L
same,MIC,"[1]; strain ECO 190457 (CTX-M-15, OXA-1)",16 mg/L
same,MIC,[1]; strain ECO 190549 (CTX-M-1),4 mg/L
same,MIC,[1]; strain ECO 200344 (CTX-M-1),8 mg/L
same,MIC,[1]; strain ECO 260304 (CTX-M-15),16 mg/L
same,MIC,[1]; strain ECO RGN238 (OXA-1),0.5 mg/L
same,MIC,"[1]; strain ECO UFR15 (TEM-1, OXA-48)",0.5 mg/L
same,MIC,"[1]; strain ECO UFR86 (ompC-, ompF-), read-out: MIC",2 mg/L
same,MIC,"[1]; strain ECO UFR174 (TEM-1, KPC-2, OXA-1)",8 mg/L
same,MIC,"[1]; strain ECO UFR175 (TEM-1, KPC-2, OXA-9)",32 mg/L
same,MIC,"[1]; strain ECO UFR185 (OXA-48), read-out: MIC",> 256 mg/L
same,MIC,"[1]; strain ECO UFR186 (TEM-1, CTX-M-14, OXA-48)",8 mg/L
same,MIC,"[1]; strain ECO UFR187 (CTX-M-15, OXA-48)",8 mg/L
same,MIC,"[1]; strain ECO UFR191 (TEM-1, CTX-M-24, OXA-48)",4 mg/L
same,MIC,[1]; strain ECO UFR210 (SHV-12),32 mg/L
same,MIC ATB in combination,"[2]; PMI UFR82, AF1 @ 4 μg/mL",<=0.25 μg/mL
same,MIC ATB in combination,"[2]; PMI UFR82, AF1 @ 8 μg/mL",<=0.25 μg/mL
same,MIC ATB in combination,"[2]; PMI UFR120, AF1 @ 4 μg/mL",<=0.25 μg/mL
same,MIC ATB in combination,"[2]; PMI UFR120, AF1 @ 8 μg/mL",<=0.25 μg/mL
same,MIC ATB in combination,"[2]; PMI UFR121, AF1 @ 4 μg/mL",<=0.25 μg/mL
same,MIC ATB in combination,"[2]; PMI UFR121, AF1 @ 8 μg/mL",<=0.25 μg/mL
same,MIC ATB in combination,"[2]; PMI UFR122, AF1 @ 4 μg/mL",<=0.25 μg/mL
same,MIC ATB in combination,"[2]; PMI UFR122, AF1 @ 8 μg/mL",<=0.25 μg/mL
same,MIC ATB in combination,"[2]; PMI UFR123, AF1 @ 4 μg/mL",<=0.25 μg/mL
same,MIC ATB in combination,"[2]; PMI UFR123, AF1 @ 8 μg/mL",<=0.25 μg/mL
same,MIC ATB in combination,"[2]; PMI UFR124, AF1 @ 4 μg/mL",<=0.25 μg/mL
same,MIC ATB in combination,"[2]; PMI UFR124, AF1 @ 8 μg/mL",<=0.25 μg/mL
same,MIC ATB in combination,"[2]; PMI UFR125, AF1 @ 4 μg/mL",<=0.25 μg/mL
same,MIC ATB in combination,"[2]; PMI UFR125, AF1 @ 8 μg/mL",<=0.25 μg/mL
same,MIC ATB in combination,"[2]; PMI UFR126, AF1 @ 4 μg/mL",<=0.25 μg/mL
same,MIC ATB in combination,"[2]; PMI UFR126, AF1 @ 8 μg/mL",<=0.25 μg/mL
same,MIC ATB in combination,"[2]; PMI UFR127, AF1 @ 4 μg/mL",<=0.25 μg/mL
same,MIC ATB in combination,"[2]; PMI UFR127, AF1 @ 8 μg/mL",<=0.25 μg/mL
same,MIC ATB in combination,"[2]; PMI UFR129, AF1 @ 4 μg/mL",<=0.25 μg/mL
same,MIC ATB in combination,"[2]; PMI UFR129, AF1 @ 8 μg/mL",<=0.25 μg/mL
same,MIC ATB in combination,"[2]; PMI UFR130, AF1 @ 4 μg/mL",<=0.25 μg/mL
same,MIC ATB in combination,"[2]; PMI UFR130, AF1 @ 8 μg/mL",<=0.25 μg/mL
same,MIC ATB in combination,"[2]; PMI UFR237, AF1 @ 4 μg/mL",0.5 mg/L
same,MIC ATB in combination,"[2]; PMI UFR237, AF1 @ 8 μg/mL",<=0.25 μg/mL
same,MIC,[2]; strain PMI UFR82 (CMY-2),4 mg/L
same,MIC,"[2]; strain PMI UFR120 (TEM-1, SHV-11, CTX-M-14)",≤ 0.25 mg/L
same,MIC,"[2]; strain PMI UFR121 (TEM-1, TEM-52)",16 mg/L
same,MIC,"[2]; strain PMI UFR122 (TEM-1, CTX-M-15)",1 mg/L
same,MIC,[2]; strain PMI UFR123 (CTX-M-1),2 mg/L
same,MIC,[2]; strain PMI UFR124 (CTX-M-2),2 mg/L
same,MIC,[2]; strain PMI UFR125 (CTX-M-71),2 mg/L
same,MIC,[2]; strain PMI UFR130 (CMY-2),4 mg/L
